Assay results from US8389557B2, “Triazole derivatives useful as Axl inhibitors” (Rigel Pharmaceuticals, Inc., priority 2005, dated 2013).

target: T1, Axl (Homo sapiens, UniProt P30530); assay: Phospho-Akt in-cell Western assay (inhibition of Axl activity); type: cell-based; details: Table 2; Hela cells, Axl antibody cross-linking stimulation, phospho-Akt chemiluminescence
T1 construct: endogenous in cells; host or cells: HeLa cells
T1 sequence (P30530 26-894): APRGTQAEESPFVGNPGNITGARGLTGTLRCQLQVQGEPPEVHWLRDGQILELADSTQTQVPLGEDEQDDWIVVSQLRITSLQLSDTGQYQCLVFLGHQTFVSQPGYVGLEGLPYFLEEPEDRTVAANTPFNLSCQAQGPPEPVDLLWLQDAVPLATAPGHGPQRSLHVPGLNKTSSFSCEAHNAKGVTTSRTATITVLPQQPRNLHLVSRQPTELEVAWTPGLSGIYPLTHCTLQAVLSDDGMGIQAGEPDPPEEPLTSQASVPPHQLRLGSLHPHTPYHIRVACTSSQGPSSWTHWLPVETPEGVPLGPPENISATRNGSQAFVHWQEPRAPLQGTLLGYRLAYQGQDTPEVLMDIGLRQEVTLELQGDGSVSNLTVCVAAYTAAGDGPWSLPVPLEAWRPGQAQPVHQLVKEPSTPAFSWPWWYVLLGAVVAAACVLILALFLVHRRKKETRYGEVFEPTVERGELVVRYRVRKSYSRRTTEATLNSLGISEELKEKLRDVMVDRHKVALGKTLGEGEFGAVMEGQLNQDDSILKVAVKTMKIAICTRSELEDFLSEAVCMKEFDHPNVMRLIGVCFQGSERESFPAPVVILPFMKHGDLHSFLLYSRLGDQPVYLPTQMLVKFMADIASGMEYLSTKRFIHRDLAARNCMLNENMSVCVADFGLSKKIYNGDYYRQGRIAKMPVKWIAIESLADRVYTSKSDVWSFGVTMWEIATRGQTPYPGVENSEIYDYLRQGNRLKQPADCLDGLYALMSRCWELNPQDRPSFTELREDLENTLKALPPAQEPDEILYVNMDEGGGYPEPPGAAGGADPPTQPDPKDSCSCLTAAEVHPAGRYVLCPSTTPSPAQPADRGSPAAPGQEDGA
Protocol: The compounds of the invention were tested in the following assay for their ability to inhibit Axl activity.
Phospho-Akt in-Cell Western Assay
• Cell culture plate: 96 well assay plate (Corning 3610), white, clear bottom, tissue-culture treated. • Cells: Hela cells. • Starvation medium: For Axl stimulation: 0.5% FCS (fetal calf serum) in DMEM, plus Axl/Fc (extracellular domain of AXL fused to immunoglobulin Fc region) (R&D, 154-AL) 500 ng/mL. • For EGF (epidermal growth factor) stimulation: 0.5% FCS in DMEM (Dulbecco's modified Eagles medium). • Poly-L-Lysine 0.01% solution (the working solution): 10 μg/ml, dilute In PBS (phosphate buffered saline). • Axl antibody cross-linking: • 1st: Mouse anti-Axl (R&D, MAB154). • 2nd: Biotin-SP-conjugated AffiniPure goat anti-mouse IgG (H+L) (Jackson ImmunoResearch #115-065-003). • Fixing buffer: 4% formaldehyde in PBS. • Wash buffer: 0.1% TritonX-100 in PBS. • Quenching buffer: 3% H2O2, 0.1% Azide in wash buffer, Azide and hydrogen peroxide (H2O2) are added fresh. • Blocking buffer: 5% BSA in TBST (tris buffered saline plus 0.1% Tween 20). • Primary antibody: Rabbit anti-human Phospho-Akt antibody (Cell Signaling 9271): 1×250 diluted in blocking buffer. • Secondary antibody: HRP (horse radish peroxidase)-conjugated Goat anti-Rabbit secondary, stock solution: Jackson ImmunoResearch (Goat anti-Rabbit HRP, #111-035-144) 1:1 diluted in glycerol, store at −20° C. The working solution: 1×2000 dilution of stock in blocking buffer. • Chemiluminescent working solution (Pierce, 37030): SuperSignal ELISA (enzyme linked immunosorbant assay) Pico Chemiluminescent substrate. • Crystal Violet solution: Stock: 2.5% Crystal violet in methanol, filtered and kept at ambient temperature. The working solution: dilute the stock 1:20 with PBS immediately before use. • 10% SDS: working solution: 5% SDS (sodium dodecylsulfate), diluted in PBS Methods: Day 1:
A 96 well TC (tissue culture treated) plate was coated with 10 μg/mL poly-L-Lysine at 37° C. for 30 min, washed twice with PBS, and air-dried for 5 minutes before cells were added. Hela cells were seeded at 10,000 cells/well and the cells were starved in 100 μL starvation medium containing Axl/Fc for 24 hrs.
The cells were pre-treated with test compounds by adding 100 μL of 2× test compound to the starvation medium on the cells. The cells were incubated at 37° C. for 1 hr before stimulation.
The cells were stimulated by Axl-antibody cross-linking as follows: A 5×1st/2nd Axl antibody mixture was made (37.5 μg/mL 1st/100 μg/mL 2nd) in starvation medium and nutated at 4° C. with thorough mixing for 1-2 hours for clustering. The resulting mix was warmed to 37° C. 50 μL of 5× Axl 1st/2nd of antibody cluster was added to the cells and the cells were incubated at 37° C. for 5 min.
After 5 minutes stimulation, the plate was flicked to remove medium and the plate was tapped onto paper towels. Formaldehyde (4.0% in PBS, 100 μL) was added to fix the cells and the cells were incubated at ambient temperature for 20 min without shaking.
The cells were washed with a plate washer buffer to remove the formaldehyde solution. The plate was flicked to removed excess wash buffer and tapped onto paper towels. Quenching buffer (100 μL) was added to each well and the cells were incubated at ambient temperature for 20 minutes without shaking.
The cells were washed with a plate washer buffer to remove the quenching buffer. Blocking buffer (100 μL) was added and the cells were incubated at ambient temperature for at least an hour with gentle shaking.
The cells were washed with a plate washer buffer and diluted primary antibody (50 μL) was added to each well (blocking buffer was added to the negative control wells instead). The plates were incubated overnight at 4° C. with gentle shaking.
The wash buffer was removed, diluted secondary antibody (100 μL) was added, and the cells were incubated at ambient temperature for 1 hour with gentle shaking. […]

IC50 | Structure (SMILES)
> 20 µM | Nc1nc(Nc2ccc(N3CCOCC3)cc2)n(C(=O)c2cccc(Cl)c2)n1 [compound 75, 3-amino-1-(3-(chloro)phenyl)carbonyl-5-(4-(morpholin-4-yl)phenylamino)-1H-1,2,4-triazole]

same assay, conditions: Table 3; Hela cells, Axl antibody cross-linking stimulation, phospho-Akt chemiluminescence

IC50 | Structure (SMILES)
1 to 10 µM | CC1(C)Oc2ccc(C(=O)n3nc(Nc4ccc(N5CCOCC5)cc4)nc3N)cc2NC1=O [compound 68, 5-amino-1-(2,2-dimethyl-2H-benzo[b][1,4]oxazin-3(4H)-on-6-yl)carbonyl-3-(4-(morpholin-4-yl)phenylamino)-1H-1,2,4-triazole]
< 1 µM | CC1(C)Oc2ccc(C(=O)n3nc(Nc4ccc(OCCN5CCCCC5)cc4)nc3N)cc2NC1=O [compound 78, 5-amino-1-(2,2-dimethyl-2H-benzo[b][1,4]oxazin-3(4H)-on-6-yl)carbonyl-3-[4-[2-(piperidin-1-yl)ethoxy]phenylamino]-1H-1,2,4-triazole]
< 1 µM | CN(C)CCOc1ccc(Nc2nc(N)n(C(=O)c3ccc4c(c3)NC(=O)C(C)(C)O4)n2)cc1 [compound 86, 5-amino-3-[4-[2-(dimethylamino)ethoxy]phenylamino]-1-(2,2-dimethyl-2H-benzo[b][1,4]oxazin-3(4H)-on-6-yl)carbonyl-1H-1,2,4-triazole]

same assay, conditions: Table 4; Hela cells, Axl antibody cross-linking stimulation, phospho-Akt chemiluminescence

IC50 | Structure (SMILES)
1 to 10 µM | CC(C)Oc1ccc(Nc2nc(N)nn2C(=O)c2ccc3c(c2)NC(=O)C(C)(C)O3)cc1 [compound 66, 3-amino-1-(2,2-dimethyl-2H-benzo[b][1,4]oxazin-3(4H)-on-6-yl)carbonyl-5-(4-(iso-propoxy)phenyl)amino-1H-1,2,4-triazole]
1 to 10 µM | CC1(C)Oc2ccc(C(=O)n3nc(N)nc3Nc3ccc(N4CCOCC4)cc3)cc2NC1=O [compound 69, 3-amino-1-(2,2-dimethyl-2H-benzo[b][1,4]oxazin-3(4H)-on-6-yl)carbonyl-5-(4-(morpholin-4-yl)phenylamino)-1H-1,2,4-triazole]

same assay, conditions: inhibition of Axl activity, Table 1

Structure (SMILES) | IC50
Nc1nc(Nc2ccc(N3CCOCC3)cc2)nn1C(=O)c1cccc(O)c1 [compound 67, 5-amino-1-(3-(hydroxy)phenyl)carbonyl-3-(4-(morpholin-4-yl)phenylamino)-1H-1,2,4-triazole] | 1 to 10 µM
CC(C)Oc1ccc(Nc2nc(N)n(C(=O)c3cccc([N+](=O)[O-])c3)n2)cc1 [compound 71, 5-amino-3-[4-(iso-propoxy)phenylamino]-1-(3-(nitro)phenyl)carbonyl-1H-1,2,4-triazole] | 1 to 10 µM
Nc1nc(Nc2ccc(N3CCOCC3)cc2)nn1C(=O)c1cccc([N+](=O)[O-])c1 [compound 72, 5-amino-3-(4-(morpholin-4-yl)phenylamino)-1-(3-(nitro)phenyl)carbonyl-1H-1,2,4-triazole] | 1 to 10 µM
COC(=O)c1cccc(C(=O)n2nc(Nc3ccc(OCCN4CCCCC4)cc3)nc2N)c1 [compound 79, 5-amino-1-(3-(methoxycarbonyl)phenyl)carbonyl-3-[4-[2-(piperidin-1-yl)ethoxy]phenylamino]-1H-1,2,4-triazole] | 1 to 10 µM
CN(C)CCOc1ccc(Nc2nc(N)n(C(=O)c3ccc(OC(C)(C)C)cc3)n2)cc1 [compound 83, 5-amino-3-[4-[2-(dimethylamino)ethoxy]phenylamino]-1-(4-(tert-butoxy)phenyl)carbonyl-1H-1,2,4-triazole] | < 1 µM

Other lines, results leading:

IC50 | Structure (SMILES)
> 20 µM | Nc1nc(Nc2ccc(N3CCOCC3)cc2)nn1C(=O)c1ccc(S(N)(=O)=O)cc1 [compound 70, 5-amino-1-(4-(aminosulfonyl)phenyl)carbonyl-3-(4-(morpholin-4-yl)phenylamino)-1H-1,2,4-triazole]
1 to 10 µM | CC(C)Oc1ccc(Nc2nc(N)n(C(=O)c3cccc(O)c3)n2)cc1 [compound 73, 5-amino-1-(3-(hydroxy)phenyl)carbonyl-3-[4-(iso-propoxy)phenylamino]-1H-1,2,4-triazole]
1 to 10 µM | Nc1nc(Nc2ccc(N3CCOCC3)cc2)nn1C(=O)c1cccc(Cl)c1 [compound 74, 5-amino-1-(3-(chloro)phenyl)carbonyl-3-(4-(morpholin-4-yl)phenylamino)-1H-1,2,4-triazole]
> 20 µM | CC(C)Oc1ccc(Nc2nc(N)n(C(=O)c3cccc(Cl)c3)n2)cc1 [compound 76, 5-amino-1-(3-(chloro)phenyl)carbonyl-3-[4-(iso-propoxy)phenylamino]-1H-1,2,4-triazole]
1 to 10 µM | CC(C)Oc1ccc(Nc2nc(N)n(C(=O)c3ccc(OCCN4CCCCC4)cc3)n2)cc1 [compound 77, 5-amino-3-[4-(iso-propoxy)phenylamino]-1-[4-[2-(piperidin-1-yl)ethoxy]phenyl)carbonyl-1H-1,2,4-triazole]
< 1 µM | COc1cccc(C(=O)n2nc(Nc3ccc(OCCN4CCCCC4)cc3)nc2N)c1 [compound 80, 5-amino-1-(3-(methoxy)phenyl)carbonyl-3-[4-[2-(piperidin-1-yl)ethoxy]phenylamino]-1H-1,2,4-triazole]
1 to 10 µM | COc1cccc(C(=O)n2nc(Nc3ccc(N4CCOCC4)cc3)nc2N)c1 [compound 81, 5-amino-1-(3-(methoxy)phenyl)carbonyl-3-(4-(morpholin-4-yl)phenylamino)-1H-1,2,4-triazole]

same assay, conditions: inhibition of Axl activity, phospho-Akt in-cell Western assay; Table 1

IC50 | Structure (SMILES)
< 1 µM | CC(C)Oc1ccc(C(=O)n2nc(Nc3ccc(OCCN(C)C)cc3)nc2N)cc1 [compound 85, 5-amino-3-[4-[2-(dimethylamino)ethoxy]phenylamino]-1-(4-(iso-propoxy)phenyl)carbonyl-1H-1,2,4-triazole]
< 1 µM | CN(C)CCOc1ccc(Nc2nc(N)n(C(=O)c3ccc(N(C)C)cc3)n2)cc1 [compound 87, 5-amino-3-[4-[2-(dimethylamino)ethoxy]phenylamino]-1-(4-(dimethylamino)phenyl)carbonyl-1H-1,2,4-triazole]
1 to 10 µM | Cc1ccc(C(=O)n2nc(Nc3ccc(OCCCN(C)C)cc3)nc2N)cc1 [compound 91, 5-amino-3-[4-[3-(dimethylamino)propoxy]phenylamino]-1-(4-(methyl)phenyl)carbonyl-1H-1,2,4-triazole]
